Test system: rats of the strain HsdCpb:Wu
Assay: Increased bone formation in rats after 4 weeks of once-daily administration via stomach tube
Type: in vivo
Conditions: once per day via stomach tube, male and female rats, all test animals
Procedure: For a period of 4 weeks, one of the two compounds listed in Table 1 was administered, in each case in one of the concentrations given in Table 1, once per day via a stomach tube to 10 male and 10 female rats of the strain HsdCpb:Wu. […] Pathological endosteal or periosteal changes were not noticed.

SMILES	bone formation in the area of the spongioid bone proximally and distally to the epiphyseal arcus of the great tubular bones (50 mg/kg or more)	bone formation in the area of the spongioid bone proximally and distally to the epiphyseal arcus of the great tubular bones (5 mg/kg or more)
Nc1nc(-c2nn(Cc3ccccc3F)c3ncccc23)ncc1C1CC1 [Compound 1]	increased bone formation	
Nc1nc(-c2nn(Cc3ccccc3F)c3ncccc23)nc(N)c1N1CCOCC1 [Compound 2]		increased bone formation
